From patent US6420401B1, “1,2,5, thiadiazolidin-3-one 1,1-dioxide derivatives” (Wichita State University, priority 1997, dated 2002)

What was measured:
Type in all cases: biochemical
[1] = molecular target: T1, human leukocyte cathepsin G (Cat G) (Homo sapiens, UniProt P08311); assay: Inactivation of cathepsin G, progress curve method
T1 sequence (P08311 21-244): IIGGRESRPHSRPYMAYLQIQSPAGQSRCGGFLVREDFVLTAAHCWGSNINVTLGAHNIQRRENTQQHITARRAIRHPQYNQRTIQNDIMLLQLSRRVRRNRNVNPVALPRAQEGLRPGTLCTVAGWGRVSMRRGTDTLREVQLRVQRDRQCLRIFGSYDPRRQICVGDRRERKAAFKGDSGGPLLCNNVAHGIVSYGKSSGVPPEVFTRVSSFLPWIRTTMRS
Protocol: (§1) An in vitro assay was used to screen compounds of the invention for the ability to reduce or inhibit serine protease activity. The human leukocyte elastase (HLE), cathepsin G (Cat G) and proteinase 3 (PR 3) assays have each been described in detail, Groutas et al. (1997) Biochemistry 36, 4739-4750. Chymase was assayed using N-succinyl Ala-Ala-Pro-Phe p-nitroanilide and 0.45 M Tris buffer/1.8 M NaCl, pH 8.03, Schechter, N. M. et al. (1993) J. Biol. Chem. 268, 23626-23633.
(§2) The rates of inactivation of HLE, Cat G or PR3 by each compound (or library of compounds) were determined by the progress curve method [Morrison, J. F. & Walsh, C. T. (1988) Adv. Enzymol. 61, 201-301]. Typical progress curves using a representative sulfonamide or heterocyclic sulfide inhibitor are illustrated in FIGS. 1 and 2, respectively. The apparent second-order rate constants kinact/kI M^−1 s^−1, the magnitude of which serves as an index of inhibitory potency, were determined by the progress curve method and are listed in Table 5 (sulfonamides), Table 6 (heterocyclic sulfides), Table 3 (oxa acids) , Tables 7 & 8 (libraries 1-30), and Table 9 (reversible inhibitors).
A solution of (L)-4,5-dibenzyl-1,2,5-thiadiazolidin-3-one 1,1 dioxide (0.5 g; 1.58 mmol) and ethyl α-bromofluoroacetate (0.44 g; 2.37 mmol) in dry dimethyl formamide (3 mL) was treated with 60% sodium hydride ([…]; 1.58 mmol). The reaction mixture was kept at 55° C. for 1 h using a water bath. The solvent was removed in vacuo and the product was dissolved in ethyl acetate (35 mL) and washed with water (3×10 mL), 5% sodium bicarbonate (2×10 mL) and dried over anhydrous sodium sulfate. Evaporation of the solvent yielded a crude product (0.56 g) which was purified by flash chromatography using silica gel and a hexane/methylene chloride gradient. The product K-1a (0.15 g; 25% yield) was screened against human leukocyte cathepsin G using the progress curve method (kinact/Ki>10,000 M^−1 s^−1). [drawing 45] [drawing 46] [drawing 47] [drawing 48] [drawing 49]

[2] = molecular target: T2, human leukocyte elastase (HLE) (Homo sapiens, UniProt P08246); assay: Inactivation of human leukocyte elastase, progress curve method
T2 sequence (P08246 30-267): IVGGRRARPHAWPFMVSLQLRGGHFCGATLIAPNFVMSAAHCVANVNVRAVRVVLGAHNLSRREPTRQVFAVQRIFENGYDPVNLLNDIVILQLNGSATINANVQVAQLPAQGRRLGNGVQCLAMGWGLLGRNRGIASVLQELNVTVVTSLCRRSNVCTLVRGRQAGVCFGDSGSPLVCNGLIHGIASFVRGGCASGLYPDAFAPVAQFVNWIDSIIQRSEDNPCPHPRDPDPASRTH
Protocol: (§3) Absorbance was recorded at 410 nm for reaction solutions containing 20.0 nM HLE, 1.00 mM MeOSuc-Ala-Ala-Pro-Val p-nitroanilide, and the indicated concentrations of inhibitor in 0.1 M HEPES buffer, pH 7.25, and 3.6% dimethyl sulfoxide. The temperature was maintained at 25° C., and the reactions were initiated by the addition of enzyme.
as §3, with “(Table 4). Absorbance” for “Absorbance”, “monitored” for “recorded”
as §1, §2

[3] = molecular target: T3, Human Leukocyte Proteinase 3 (PR 3) (Homo sapiens, UniProt P24158); assay: Inactivation of proteinase 3, progress curve method
T3 sequence (P24158 28-248): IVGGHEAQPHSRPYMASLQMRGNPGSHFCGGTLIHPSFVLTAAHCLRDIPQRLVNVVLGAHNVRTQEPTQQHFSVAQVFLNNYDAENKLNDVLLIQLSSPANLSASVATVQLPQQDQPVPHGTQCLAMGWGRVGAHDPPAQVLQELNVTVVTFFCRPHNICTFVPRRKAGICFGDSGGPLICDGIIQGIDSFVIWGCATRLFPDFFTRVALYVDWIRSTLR
Protocol: as §1, §2

[4] = Table 5, sulfonamides 31-49, apparent second-order rate constant
[5] = Table 6, heterocyclic sulfides 53-69

**Q.** Which kinact/KI ([1]; Table 5, sulfonamides 31-49) does the source give for CCOC(=O)CNC(=O)N(CN1C(=O)C(CC(C)C)N(Cc2ccccc2)S1(=O)=O)S(C)(=O)=O (centres unmarked) [Compound 48] here?
**A.** The kinact/KI was 70 M⁻¹ s⁻¹.

**Q.** What about the kinact/KI [2, 4] of the same molecule?
**A.** The kinact/KI was 14100 M⁻¹ s⁻¹.

**Q.** And the kinact/KI ([3]; Table 5, sulfonamides 31-49)?
**A.** The kinact/KI was 5190 M⁻¹ s⁻¹.

**Q.** Which kinact/KI [1, 5] does the source give for CN1C(Cc2ccccc2)C(=O)N(CSc2nc3ccccc3o2)S1(=O)=O (centres unmarked) [Compound 66] here?
**A.** Its kinact/KI is 430 M⁻¹ s⁻¹.

**Q.** How did the kinact/KI [2, 4] turn out when CC(C)CC1C(=O)N(CN2C(=O)C(CC(C)C)N(Cc3ccccc3)S2(=O)=O)S(=O)(=O)N1Cc1ccccc1 (centres unmarked) [Compound 49] was run?
**A.** The kinact/KI was 850 M⁻¹ s⁻¹.

**Q.** Which results are given for CCCCOC(=O)N(CN1C(=O)C(Cc2ccccc2)N(Cc2ccccc2)S1(=O)=O)S(C)(=O)=O (centres unmarked) [Compound 38]?
**A.** kinact/KI ([1]; Table 5, sulfonamides 31-49): 5380 M⁻¹ s⁻¹; kinact/KI [2, 4]: 1970 M⁻¹ s⁻¹

**Q.** For CCOC(=O)C(F)N1C(=O)C(Cc2ccccc2)N(Cc2ccccc2)S1(=O)=O (centres unmarked) [Compound K-1a], which kinact/Ki ([1]; human leukocyte cathepsin G, progress curve method) is on record?
**A.** Its kinact/Ki is > 10,000 M^−1 s^−1.

**Q.** What does the source list for CC(C)CC1C(=O)N(CN(C(=O)CNC(=O)OC(C)(C)C)S(C)(=O)=O)S(=O)(=O)N1C (centres unmarked) [Compound 42]?
**A.** kinact/KI [2, 4]: 140000 M⁻¹ s⁻¹; kinact/KI ([3]; Table 5, sulfonamides 31-49): 27400 M⁻¹ s⁻¹

**Q.** CC(C)CC1C(=O)N(CSc2nc3cc(-c4ccccc4)ccc3o2)S(=O)(=O)N1C (centres unmarked) [Compound 63] was tested. Which kinact/KI [2, 5] did it give?
**A.** The kinact/KI was 22600 M⁻¹ s⁻¹.

**Q.** How did the kinact/KI [1, 5] turn out when CC(C)CC1C(=O)N(CSc2nc3ccccc3o2)S(=O)(=O)N1Cc1ccccc1 (centres unmarked) [Compound 55] was run?
**A.** The kinact/KI was 60 M⁻¹ s⁻¹.

**Q.** And the kinact/KI [2, 5]?
**A.** Its kinact/KI is 174000 M⁻¹ s⁻¹.

**Q.** What about the kinact/KI [3, 5] of the same molecule?
**A.** Its kinact/KI is 9130 M⁻¹ s⁻¹.

**Q.** With CC(C)CC1C(=O)N(CSc2nnc(-c3ccccc3)o2)S(=O)(=O)N1Cc1ccccc1 (centres unmarked) [Compound 58] as the molecule, how does the kinact/KI [2, 5] read?
**A.** Its kinact/KI is 168000 M⁻¹ s⁻¹.

**Q.** CC(C)CC1C(=O)N(CSc2nc3ccccc3s2)S(=O)(=O)N1C (centres unmarked) [Compound 54] was tested. Which kinact/KI [2, 5] did it give?
**A.** The kinact/KI was 67300 M⁻¹ s⁻¹.

**Q.** What does the source list for CC(C)CC1C(=O)N(CN(C(=O)CNC(=O)OCc2ccccc2)S(C)(=O)=O)S(=O)(=O)N1Cc1ccccc1 (centres unmarked) [Compound 45]?
**A.** kinact/KI ([1]; Table 5, sulfonamides 31-49): 70 M⁻¹ s⁻¹; kinact/KI [2, 4]: 134000 M⁻¹ s⁻¹; kinact/KI ([3]; Table 5, sulfonamides 31-49): 30100 M⁻¹ s⁻¹

**Q.** Which kinact/KI ([1]; Table 5, sulfonamides 31-49) does the source give for CC(C)CC1C(=O)N(CN(C(=O)CNC(=O)OCc2ccccc2)S(C)(=O)=O)S(=O)(=O)N1C (centres unmarked) [Compound 43] here?
**A.** Its kinact/KI is 60 M⁻¹ s⁻¹.

**Q.** And the kinact/KI [2, 4]?
**A.** The kinact/KI was 229000 M⁻¹ s⁻¹.

**Q.** And the kinact/KI ([3]; Table 5, sulfonamides 31-49)?
**A.** Its kinact/KI is 27400 M⁻¹ s⁻¹.

**Q.** For Nc1ccc2nc(SCN3C(=O)C(Cc4ccccc4)N(Cc4ccccc4)S3(=O)=O)oc2c1 (centres unmarked) [Compound 69], which kinact/KI [1, 5] is on record?
**A.** Its kinact/KI is 15700 M⁻¹ s⁻¹.

**Q.** Which kinact/KI [2, 4] does the source give for CC(C)CC1C(=O)N(CN(C(=O)OCc2ccccc2)S(C)(=O)=O)S(=O)(=O)N1C (centres unmarked) [Compound 33] here?
**A.** The kinact/KI was 22000 M⁻¹ s⁻¹.

**Q.** How did the kinact/KI [2, 4] turn out when CCCCOC(=O)N(CN1C(=O)C(CC(C)C)N(C)S1(=O)=O)S(C)(=O)=O (centres unmarked) [Compound 32] was run?
**A.** The kinact/KI was 40500 M⁻¹ s⁻¹.

**Q.** With O=C1C(Cc2ccccc2)N(Cc2ccccc2)S(=O)(=O)N1CSc1nnc(-c2ccccc2)o1 (centres unmarked) [Compound 68] as the molecule, how does the kinact/KI [1, 5] read?
**A.** Its kinact/KI is 17500 M⁻¹ s⁻¹.

**Q.** Which results are given for CC(C)CC1C(=O)N(CSc2nc3ccccc3o2)S(=O)(=O)N1C (centres unmarked) [Compound 57]?
**A.** kinact/KI [1, 5]: 30 M⁻¹ s⁻¹; kinact/KI [2, 5]: 80600 M⁻¹ s⁻¹; kinact/KI [3, 5]: 10400 M⁻¹ s⁻¹

**Q.** For CC(C)CC1C(=O)N(CN(C(=O)c2ccccc2)S(C)(=O)=O)S(=O)(=O)N1C (centres unmarked) [Compound 39], which kinact/KI [2, 4] is on record?
**A.** The kinact/KI was 71000 M⁻¹ s⁻¹.

**Q.** Which kinact/KI [2, 5] does the source give for CC(C)CC1C(=O)N(CSc2nnc(-c3ccccc3)o2)S(=O)(=O)N1C (centres unmarked) [Compound 61] here?
**A.** Its kinact/KI is 25300 M⁻¹ s⁻¹.

**Q.** How did the kinact/KI [2, 5] turn out when CC(C)CC1C(=O)N(CSc2nc(-c3ccccc3)no2)S(=O)(=O)N1C (centres unmarked) [Compound 53] was run?
**A.** Its kinact/KI is 153000 M⁻¹ s⁻¹.

**Q.** For CC(C)CC1C(=O)N(CSc2nc(-c3ccccc3)no2)S(=O)(=O)N1Cc1ccccc1 (centres unmarked) [Compound 62], which kinact/KI [2, 5] is on record?
**A.** Its kinact/KI is 67800 M⁻¹ s⁻¹.

**Q.** For CC(C)CC1C(=O)N(CN(C(=O)Cc2ccccc2)S(C)(=O)=O)S(=O)(=O)N1C (centres unmarked) [Compound 40], which kinact/KI ([1]; Table 5, sulfonamides 31-49) is on record?
**A.** The kinact/KI was 220 M⁻¹ s⁻¹.

**Q.** And the kinact/KI [2, 4]?
**A.** Its kinact/KI is 28300 M⁻¹ s⁻¹.

**Q.** And the kinact/KI ([3]; Table 5, sulfonamides 31-49)?
**A.** Its kinact/KI is 10100 M⁻¹ s⁻¹.

**Q.** How did the kinact/KI [1, 5] turn out when CC(C)CC1C(=O)N(CSc2nc3cc(-c4ccccc4)ccc3o2)S(=O)(=O)N1Cc1ccccc1 (centres unmarked) [Compound 64] was run?
**A.** The kinact/KI was 50 M⁻¹ s⁻¹.

**Q.** What about the “kinact/KI HLE” value [2, 5] of the same molecule?
**A.** Its value is “inactive”.

**Q.** And the kinact/KI [3, 5]?
**A.** Its kinact/KI is 1090 M⁻¹ s⁻¹.

**Q.** Which kinact/KI [2, 5] does the source give for CC(C)CC1C(=O)N(CSc2nc(-c3ccccc3)c(-c3ccccc3)o2)S(=O)(=O)N1C (centres unmarked) [Compound 60] here?
**A.** Its kinact/KI is 1540 M⁻¹ s⁻¹.

**Q.** CC(C)CC1C(=O)N(CN(C(=O)CNC(=O)OC(C)(C)C)S(C)(=O)=O)S(=O)(=O)N1Cc1ccccc1 (centres unmarked) [Compound 44] was tested. Which kinact/KI [2, 4] did it give?
**A.** Its kinact/KI is 149000 M⁻¹ s⁻¹.

**Q.** How did the kinact/KI [1, 5] turn out when O=C1C(Cc2ccccc2)N(Cc2ccccc2)S(=O)(=O)N1CSc1nc2ccccc2o1 (centres unmarked) [Compound 67] was run?
**A.** The kinact/KI was 17100 M⁻¹ s⁻¹.

**Q.** CC(C)CC1C(=O)N(CSc2nc3ccccc3s2)S(=O)(=O)N1Cc1ccccc1 (centres unmarked) [Compound 59] was tested. Which kinact/KI [2, 5] did it give?
**A.** The kinact/KI was 22400 M⁻¹ s⁻¹.

**Q.** For CC(C)CC1C(=O)N(CSc2nc(-c3ccccc3)c(-c3ccccc3)o2)S(=O)(=O)N1Cc1ccccc1 (centres unmarked) [Compound 56], which kinact/KI [2, 5] is on record?
**A.** Its kinact/KI is 560 M⁻¹ s⁻¹.

**Q.** For CN1C(Cc2ccccc2)C(=O)N(CSc2nnc(-c3ccccc3)o2)S1(=O)=O (centres unmarked) [Compound 65], which kinact/KI [1, 5] is on record?
**A.** The kinact/KI was 490 M⁻¹ s⁻¹.

**Q.** What about the “kinact/KI HLE” value [2, 5] of the same molecule?
**A.** The value was “inactive”.

**Q.** With CC(C)COC(=O)N(CN1C(=O)C(CC(C)C)N(C)S1(=O)=O)S(C)(=O)=O (centres unmarked) [Compound 31] as the molecule, how does the kinact/KI [2, 4] read?
**A.** Its kinact/KI is 11900 M⁻¹ s⁻¹.
